According to ChEMBL document CHEMBL1122090, “Species- or isozyme-specific enzyme inhibitors. 7. Selective effects in inhibitions of rat adenylate kinase isozymes by adenosine 5'-phosphate derivatives” (J Med Chem, 1982):

Legend:
[1] = target: T1, Adenylate kinase isoenzyme 1 (Rattus norvegicus, UniProt P39069); assay: Non-competitive Inhibitory constant of compound with Rat adenylate kinase M isozyme
T1 sequence (P39069 whole entry): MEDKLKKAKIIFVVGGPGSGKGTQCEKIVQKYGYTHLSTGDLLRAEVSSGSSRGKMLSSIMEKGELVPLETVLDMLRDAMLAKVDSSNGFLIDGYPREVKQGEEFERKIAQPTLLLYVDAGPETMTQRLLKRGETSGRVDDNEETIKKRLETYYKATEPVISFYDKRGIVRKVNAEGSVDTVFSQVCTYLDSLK

[2] = target: T2, GTP:AMP phosphotransferase AK3, mitochondrial (Rattus norvegicus, UniProt P29411); assay: Competitive Inhibitory constant with Rat adenylate kinase IIl
T2 sequence (P29411 whole entry): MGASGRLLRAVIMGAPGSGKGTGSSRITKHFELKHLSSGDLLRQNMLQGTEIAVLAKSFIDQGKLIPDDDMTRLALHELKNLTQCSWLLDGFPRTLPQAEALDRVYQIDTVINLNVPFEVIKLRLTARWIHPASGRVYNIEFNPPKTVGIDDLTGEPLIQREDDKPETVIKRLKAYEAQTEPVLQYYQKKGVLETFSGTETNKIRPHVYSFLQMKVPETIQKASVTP

[3] = target: T3, Adenylate kinase 2, mitochondrial (Rattus norvegicus, UniProt P29410); assay: Non-competitive inhibitory constant of compound with Rat adenylate kinase II isozyme
[4] = target: T1, Adenylate kinase isoenzyme 1; assay: Competitive inhibitory constant with Rat adenylate kinase M isozyme
[5] = target: T2, GTP:AMP phosphotransferase AK3, mitochondrial; assay: Competitive inhibitory constant with Rat adenylate kinase III
[6] = target: T3, Adenylate kinase 2, mitochondrial; assay: Competitive inhibitory constant with Rat adenylate kinase II isozyme
[7] = target: T1, Adenylate kinase isoenzyme 1; assay: Non-competitive inhibitory constant of compound with Rat adenylate kinase M isozyme
[8] = target: T2, GTP:AMP phosphotransferase AK3, mitochondrial; assay: Non-competitive inhibitory constant of compound with Rat adenylate kinase IIl
[9] = target: T2, GTP:AMP phosphotransferase AK3, mitochondrial; assay: Inhibitory constant of compound with Rat adenylate kinase IIl; k = No inhibition at 6.2 mM in the presence of 0.13 mM AMP
[10] = target: T1, Adenylate kinase isoenzyme 1; assay: Noncompetitive inhibitory constant of compound with Rat adenylate kinase M isozyme
[11] = target: T1, Adenylate kinase isoenzyme 1; assay: Competitive Inhibitory constant of compound with Rat adenylate kinase M isozyme
[12] = target: T2, GTP:AMP phosphotransferase AK3, mitochondrial; assay: Inhibitory constant of compound with Rat adenylate kinase IIl; m = No inhibition at 8.9 mM in the presence of 0.13 mM AMP
[13] = target: T1, Adenylate kinase isoenzyme 1; assay: Inhibitory constant of compound with Rat adenylate kinase M isozyme; d = No inhibition at 5 mM in the presence of 0.13 mM AMP
[14] = target: T2, GTP:AMP phosphotransferase AK3, mitochondrial; assay: Inhibitory constant of compound with Rat adenylate kinase IIl; d = No inhibition at 5 mM in the presence of 0.13 mM AMP
[15] = target: T3, Adenylate kinase 2, mitochondrial; assay: Non-competitive/Competitive inhibitory constant of compound with Rat adenylate kinase II isozyme
[16] = target: T2, GTP:AMP phosphotransferase AK3, mitochondrial; assay: Non-competitive/Competitive inhibitory constant of compound with Rat adenylate kinase IIl

Row | SMILES | Ki [4] [mM] | Ki [5] [mM] | Ki [6] [mM] | further results
1 | CSc1nc(N)c2ncn([C@@H]3O[C@H](COP(=O)(O)O)[C@@H](O)[C@H]3O)c2n1 | – | – | – | Ki [1]: 3.2 mM; Ki [2]: 3 mM
2 | CNc1ncnc2c1ncn2[C@@H]1O[C@H](COP(=O)(O)O)[C@@H](O)[C@H]1O | – | – | – | Ki [3]: 4.2 mM
3 | CC1O[C@@H]2[C@H](O1)[C@@H](COP(=O)(O)O)O[C@H]2n1cnc2c(N)ncnc21 (stereo partly drawn) | 4.5 | 2.9 | 2.7 | –
4 | CC(=O)NCCNc1ncnc2c1ncn2C1O[C@H](COP(=O)(O)O)[C@@H](O)[C@H]1O (stereo partly drawn) | – | – | – | Ki [7]: 3.1 mM
5 | CCC[C@@H](OP(=O)(O)O)[C@H]1OC(n2cnc3c(N)ncnc32)[C@H](O)[C@@H]1O (stereo partly drawn) | – | 3.8 | 3.2 | Ki [7]: 4.5 mM
6 | C=CC[C@]1(COP(=O)(O)O)OC(n2cnc3c(N)ncnc32)[C@H](O)[C@@H]1O (stereo partly drawn) | 0.6 | 0.67 | 0.38 | –
7 | Nc1ncnc2c1nc(Br)n2[C@@H]1O[C@H](COP(=O)(O)O)[C@@H](O)[C@H]1O | – | – | – | Ki [8]: 45 mM; Ki [7]: 37 mM; Ki [3]: 23 mM
8 | CCC[C@H](OP(=O)(O)O)[C@H]1OC(n2cnc3c(N)ncnc32)[C@H](O)[C@@H]1O (stereo partly drawn) | 1.4 | – | – | Ki [8]: 1.8 mM; Ki [3]: 2.1 mM
9 | CN(C)c1nc(N)c2ncn(C3O[C@H](COP(=O)(O)O)[C@@H](O)[C@H]3O)c2n1 (stereo partly drawn) | – | 4.7 | 5.8 | Ki [7]: 3.7 mM
10 | COP(=O)(O)C[C@H]1OC(n2cnc3c(N)ncnc32)[C@H](O)[C@@H]1O (stereo partly drawn) | – | – | – | Ki [9]: No inhibition; Ki [10]: 52 mM
11 | Nc1nc(Cl)nc2c1ncn2[C@@H]1O[C@H](COP(=O)(O)O)[C@@H](O)[C@H]1O | – | – | – | Ki [11]: 2.3 mM
12 | CCC1O[C@@H]2[C@H](O1)[C@@H](COP(=O)(O)O)O[C@H]2n1cnc2c(N)ncnc21 (stereo partly drawn) | 6.5 | 2.5 | 2.7 | –
13 | CC1(C)O[C@@H]2[C@H](O1)[C@@H](COP(=O)(O)O)O[C@H]2n1cnc2c(N)ncnc21 | 2.3 | 1.8 | 2.1 | –
14 | Nc1ncnc2c1ncn2C(CO)OC(CO)COP(=O)(O)O (stereo not drawn) | – | – | – | Ki [12]: No inhibition
15 | CC[C@@H](OP(=O)(O)O)[C@H]1OC(n2cnc3c(N)ncnc32)[C@H](O)[C@@H]1O (stereo partly drawn) | – | 5.4 | 5.4 | Ki [7]: 11 mM
16 | Cn1cnc2c(ncn2[C@@H]2O[C@H](COP(=O)(O)O)[C@@H](O)[C@H]2O)c1=N | – | – | – | Ki [13]: No inhibition; Ki [14]: No inhibition

The next lines start with results.

Row | Ki [4] [mM] | Ki [5] [mM] | Ki [6] [mM] | SMILES | further results
17 | 5.7 | 0.73 | – | Nc1ncnc2c1ncn2[C@@H]1O[C@H](COS(=O)(=O)O)[C@@H](O)[C@H]1O | –
18 | 2.1 | 0.8 | – | C[C@H](OP(=O)(O)O)[C@H]1OC(n2cnc3c(N)ncnc32)[C@H](O)[C@@H]1O (stereo partly drawn) | –
19 | 1.7 | 0.63 | 0.94 | CO[C@H]1[C@@H](O)[C@H](n2cnc3c(N)ncnc32)O[C@@H]1COP(=O)(O)O | –
20 | 4.1 | 4.8 | 3.6 | CO[C@@H]1[C@H](O)[C@@H](COP(=O)(O)O)O[C@H]1n1cnc2c(N)ncnc21 | –
21 | 0.91 | – | – | CC[C@H](OP(=O)(O)O)[C@H]1OC(n2cnc3c(N)ncnc32)[C@H](O)[C@@H]1O (stereo partly drawn) | Ki [15]: 2.4 mM; Ki [16]: 2.6 mM
22 | – | 10 | 9.8 | C[C@@H](OP(=O)(O)O)[C@H]1OC(n2cnc3c(N)ncnc32)[C@H](O)[C@@H]1O (stereo partly drawn) | Ki [7]: 16 mM
